“Also recorded” adds a separate entry of the source. Each block holds one compound with its values, some of them ahead of it.
Tests used:
[1] = Irradiation experiments with singlet oxygen trap DPBF (NIR laser, absorbance readout vs dark control); format: physicochemical; details: for change in DPBF signal after irradiation: 980 nm laser, 1 W cm-2, CDCl3, 30 minutes, relative to dark control
Experimental: (§1) IR-1061 tetrafluoroborate and dry pyridine were purchased from commercial sources and used as supplied. Deuterated chloroform was purchased from commercial sources and filtered through a neutral alumina plug prior to use to neutralize and dry the solvent. Irradiations at 980 nm were performed using a 1 watt/cm^2 infrared diode laser at 980 nm coupled to a PSU-III-FDA power supply. Irradiations at 1064 nm were performed using an Nd:YAG laser at 1.8 W/cm^2. Absorbance spectra were obtained using an Agilent CARY 60 UV-Vis for spectra below 1000 nm, and a Cary 5000 UV-VIS-NIR for spectra above 1000 nm. Mass spectrometry characterization was performed via MALDI using a BRUKER MALDI/TOF Autoflex Speed and a Waters LCT Premier XE Electrospray TOF. 1H NMR spectra were obtained using a Varian 600 MHz Spectrometer.
Dye was dissolved in deuterated solvent at a concentration that would produce an absorbance near 1 at 980 nm. This was calculated using extinction coefficients determined by absorbance measurements of the dye alone. The IR-1061-acridinium irradiation in water was an exception, as the concentration was kept lower to ensure solubility. Dye solution was split into two aliquots and added to two 1 cm by 1 cm quartz cuvettes purchased from Starna. The absorption spectra were taken for both cuvettes (to ensure the pre-irradiation sample looked the same in both cases), and subsequently one cuvette was irradiated while the other was kept in the dark. A stir bar was used to ensure proper mixing during irradiation. After irradiation, the absorbance of both solutions was again evaluated. […] For the 1064 nm irradiation, the dye was dissolved at a slightly higher concentration to an absorbance of approximately 1.5 at 1064 nm and irradiated for 5 minutes. At this point significant photobleaching of the dye was observed, so additional irradiation was not performed.
The freeze-pump-thaw (FPT) experiment was carried out as follows. Dye was dissolved in deuterated chloroform and added to a FPT that apparatus. Three consecutive freeze-pump-thaw cycles were carried out to a pressure of less than […], at which point the solution was transferred under vacuum to the arm of the apparatus containing a fused 1 cm by 1 cm quartz cuvette (Starna). Irradiation and subsequent absorption measurements were carried out in the sealed cuvette.
The pyridine addition reaction was extremely sensitive to water, but gave good conversion using dry pyridine. […] Despite this inconvenience, the slightly impure dye was used as a proof of principle. For initial singlet oxygen generation experiments, the dye was dissolved in CDCl3—the solvent in which it had the highest solubility—and irradiated using a 1 Wcm^−2 980 nm laser in the presence of a singlet oxygen trap, diphenylisobenzofuran (DPBF). DPBF was selected as a trap because it is a standard in the field and because other popular detectors (such as singlet oxygen sensor green, SOSG) led to precipitation of IR-1061-pyridinium over time.

[2] = Stability and solubility observations of the dye; format: physicochemical
[3] = Comparative quantum yield experiments (DPBF bleaching vs phenalenone); format: physicochemical; details: chloroform; for relative quantum yield of singlet oxygen generation: 1064 nm, relative to phenalenone, corrected for photon flux; for percent decrease in DPBF signal at 415 nm: 30 seconds
From the text: Phenalenone, a highly efficient singlet oxygen generator with a known singlet oxygen quantum yield of 0.97 in chloroform was used to benchmark the efficiency of IR-1061-acridinium singlet oxygen generation in chloroform. A solution of phenalenone at an absorbance of 0.30 at 365 nm was generated that also contained DPBF at an absorbance of approximately 1.0. This solution was irradiated for 30 seconds using a 365 nm variable power LED (3-300 mW, Thor labs) at 30 mW/cm^2. The percent decrease in DPBF signal at 415 nm was calculated, taking into account any background from phenalenone. This was done in triplicate. A similar experiment was then run using IR-1061-acridinium. A solution containing the dye at an absorbance of 0.30 at 1064 and DPBF at an absorbance of approximately 1.0 was irradiated for 30 seconds using a 1064 nm Nd:YAG laser with a power output of 1.8 W/cm^2. The percent decrease in DPBF signal at 415 nm was then calculated, taking into account any background from IR-1061-acridinium. This was also done in triplicate.
The percent decrease attributed to phenalenone was calculated to be 0.53 and the percent decrease attributed to IR-1061-acridinium was calculated to be 0.29. To account for the difference in photon flux at these two wavelengths, the ratio of the photon flux was calculated, where the photon flux was described by the following equation: PF=I*λ/(h*c*Na). PF stands for photon flux, I is the irradiation intensity, λ is the irradiation wavelength, his Planck's constant, c is the speed of light and Na is Avogadro's number. The ratio of the photon flux was simplified to PFR=(IPhe*λPhe)/(IIR*λIr)=(0.03 W/cm^2*365 nm)/(1.8 W/cm^2*1064 nm)=0.006. Considering this difference in photon flux and phenalenone's known quantum yield of singlet oxygen generation of 0.97, this yielded a relative quantum yield of about 0.003, or 0.3%.

[4] = NIR absorbance spectrum; format: physicochemical; parameters: dose or concentration left out as unconfirmed; details: CDCl3
Experimental: as §1

[5] = in chloroform, irradiation at 365 nm; cited from earlier work
[6] = 980 nm, D2O with DMSO-D6 for solubility
[7] = 1064 nm laser, 1.8 W cm-2, CDCl3, 5 minutes

Structure (SMILES): ClC1=C(/C=C/c2cc(-c3ccccc3)[s+]c(-c3ccccc3)c2)CCC/C1=C\C=C1C=C(c2ccccc2)SC(c2ccccc2)=C1 [IR-1061, reference compound]
change in DPBF signal after irradiation [1]: no significant changes in DPBF signal

solubility after counterion exchange BF4- to BArF- ([2]; compared with BF4- salt): increase in solubility
Structure (SMILES): C(/C=C1\CCCC(/C=C/c2cc(-c3ccccc3)[s+]c(-c3ccccc3)c2)=C1[n+]1c2ccccc2cc2ccccc21)=C1C=C(c2ccccc2)SC(c2ccccc2)=C1 [IR-1061-acridinium BArF]
photosensitization capability after counterion exchange BF4- to BArF- ([1]; 980 nm, CDCl3, compared with tetrafluoroborate salt): marked decrease in photosensitization capability; also recorded: Reactivity was significantly reduced

DPBF degradation rate in water [1, 6]: comparable to those seen in chloroform
photobleaching of the dye in water [1, 6]: high levels of photobleaching
DPBF degradation in polar aprotic solvents ([1]; 980 nm, deuterated polar aprotic solvents such as DMSO): decreased DPBF degradation
bleaching of the dye during irradiation [1, 7]: significant bleaching of the dye
λmax of NIR absorbance [4]: 1078
effect of introduction of protein (BSA) ([2]; BSA added): precipitation of the dye
Structure (SMILES): C(/C=C1\CCCC(/C=C/c2cc(-c3ccccc3)[s+]c(-c3ccccc3)c2)=C1[n+]1c2ccccc2cc2ccccc21)=C1C=C(c2ccccc2)SC(c2ccccc2)=C1 [IR-1061-acridinium]
change in DPBF signal after irradiation [1]: significant DPBF photobleaching was observed only after 30 minutes
singlet oxygen generation in nonpolar solvents ([1]; 980 nm, deuterated nonpolar solvents such as toluene): no singlet oxygen generation was observed
change in DPBF signal, freeze-pump-thawed sample devoid of oxygen ([1]; 980 nm, freeze-pump-thawed CDCl3): no change in DPBF signal
DPBF photobleaching after irradiation [1, 7]: near complete photobleaching of DPBF; also recorded: Rapid bleaching of both the dye and DPBF signal
relative quantum yield of singlet oxygen generation [3]: about 0.003
relative quantum yield of singlet oxygen generation ([3]; approximate): ~0.3%
percent decrease in DPBF signal at 415 nm ([3]; 1064 nm Nd:YAG laser at 1.8 W/cm2, absorbance 0.30 at 1064, triplicate): 0.29

Structure (SMILES): C(/C=C1\CCCC(/C=C/c2cc(-c3ccccc3)[s+]c(-c3ccccc3)c2)=C1[n+]1ccccc1)=C1C=C(c2ccccc2)SC(c2ccccc2)=C1 [IR-1061-pyridinium]
change in DPBF signal after irradiation [1]: significant decrease in the DPBF signal
stability to hydration during purification ([2]; all evaluated purification conditions): too sensitive to isolate in pure form due to hydration

Structure (SMILES): O=C1C=Cc2cccc3cccc1c23 [phenalenone, reference compound]
percent decrease in DPBF signal at 415 nm ([3]; 365 nm LED at 30 mW/cm2, absorbance 0.30 at 365 nm, triplicate): 0.53
known singlet oxygen quantum yield [5]: 0.97

Reference: US11702546B2, “Near-infrared heptamethine dyes for generation of singlet oxygen” (California Institute of Technology, priority 2018, dated 2023)
